Measured values from publication PMC7417813, “Synthesis and Biological Evaluation of Thio-Derivatives of 2-Hydroxy-1,4-Naphthoquinone (Lawsone) as Novel Antiplatelet Agents” (Frontiers in Chemistry, 2020).
“Also recorded” adds a separate entry of the source. Like-named read-outs stand apart in the source and are kept apart here.

Tests used:
[1] = test system: washed platelets; experiment: Lactate dehydrogenase (LDH)-based cytotoxicity assay on washed platelets; settings: for cytotoxicity on platelets by LDH leakage (in words): 100 μM, 10 min at 37°C; for Cytotoxic activity Mean (%) ± SD: LDH release as percentage of total enzyme activity (0.3% Triton X-100 lysis), 100 μM compound, 10 min, 37°C, washed platelets
Protocol: Platelets were obtained from citrated whole blood of healthy volunteers (two weeks drugs-free) with written informed consent, as previously described (Fuentes et al., [2014a]).
Washed platelets (200 × 10^9 platelets/L) were incubated for 10 min at 37°C with DMSO (vehicle) 0.2% or 100 μM of compounds. Then, platelets are centrifuged (800 × g for 8 min), and 50 μL aliquots of the resulting supernatant analyzed by the LDH assay (Cayman Chemical, USA).

[2] = test system: TRAP-6-stimulated platelets; experiment: Platelet aggregation induced by TRAP-6 (light transmission, lumi-aggregometer); assay type: cell-based, human; settings: platelet aggregation induced by TRAP-6 (5 μM), washed platelets pre-incubated 5 min at 37°C, read-out: IC50 (μM) ± SD TRAP-6 (5 μM)
Protocol: (§1) Platelet aggregation was evaluated using a lumi-aggregometer (Chrono-Log, Haverton, PA, USA) and monitored by light transmission according to Fuentes et al. (Fuentes et al., [2014a]; Mendez et al., [2020]). Briefly, washed platelets (200 × 10^9 platelets/L) were pre-incubated for 5 min at 37°C and pH 7.4 with vehicle or different doses of compounds; then platelet aggregation was induced by TRAP-6 (5 μM) or collagen (1 μg/mL) and measured for 5 min at 37°C while stirring.
(§2) The data obtained were presented as a mean ± standard deviation (SD) of three independent experiments and analyzed using Prism 8.3 software (GraphPad Inc., San Diego CA, USA). The half-maximal inhibitory concentration (IC50) was calculated from dose-response curves. Differences between samples were analyzed using Tukey or paired t-test (Vaiyapuri et al., [2013]). P-values < 0.05 were considered as significant (Fuentes et al., [2014b]; Munoz-Gutierrez et al., [2017]).

[3] = test system: collagen-stimulated platelets; experiment: Platelet aggregation induced by collagen (light transmission, lumi-aggregometer); assay type: cell-based, human; settings: platelet aggregation induced by collagen (1 μg/mL), washed platelets pre-incubated 5 min at 37°C, read-out: IC50 (μM) ± SD Collagen (1 μg/mL)
Protocol: as §1, §2

[4] = test system: platelets; experiment: Externalization of phosphatidylserine by annexin-V binding (flow cytometry); assay type: cell-based, human; settings: Figure 3A
Protocol: (§3) Externalization of phosphatidylserine, glycoprotein (GP) IIb/IIIa activation, P-selectin expression, CD63 release, and ROS levels on platelets were determined by flow cytometry (Ritchie et al., [2000]; Fuentes et al., [2014b]; Walsh et al., [2014]). All results were analyzed in the Accuri C6 flow cytometer (BD, Biosciences, USA).
(§4) Figure 3 Antiplatelet activity of compound 4. (A) Externalization of phosphatidylserine was evaluated by annexin-V binding. (B) Levels of CD63 on the surface of platelets after activation by TRAP-6 (5 μM) or collagen (1 μg/mL). (C) P-selectin expression was measured by flow cytometry in platelets stimulated with TRAP-6 (5 μM) or collagen (1 μg/mL). (D) GPIIb/IIIa activation stimulated by TRAP-6 (5 μM) or collagen (1 μg/mL) was determined by flow cytometry using the PAC-1 antibody. The graph depicts the mean ± SD of n = 3 experiments. The black graph is the control of resting platelets. ^*p < 0.05, ^**p < 0.01, and ^***p < 0.001 vs. 0 (vehicle DMSO 0.2%).

[5] = test system: GPIIb/IIIa; experiment: GPIIb/IIIa activation by PAC-1 antibody binding (flow cytometry); assay type: cell-based, human; settings: Figure 3D
Protocol: as §3, §4
Small structural changes led to the synthesis of non-toxic lawsone thio-derivatives with potent antiplatelet activity (Tables 1, 3). […] Thus, we decided to deeply analyze the effects of compound 4 in platelets. […] We analyzed the activated form of GPIIb/IIIa by studying the binding of FITC-labeled PAC-1 antibody by flow cytometry (Fuentes et al., [2014a]).

[6] = test system: CD63; experiment: CD63 levels on the surface of platelets (flow cytometry); assay type: cell-based, human; settings: Figure 3B
Protocol: as §3, §4

[7] = test system: P-selectin; experiment: P-selectin expression on platelets (flow cytometry); assay type: cell-based, human; settings: compound at 10 and 40 μM, Figure 3C
Protocol: as §3, §4

| Molecule | cytotoxicity on platelets by LDH leakage (in words) [1] | Cytotoxic activity Mean (%) ± SD [1] [%] | IC50 ([2]; Homo sapiens) [µM] | IC50 ([3]; Homo sapiens) [µM] | melting point | other results |
| --- | --- | --- | --- | --- | --- | --- |
| 2-((2-bromophenyl)thio)-3-hydroxynaphthalene-1,4-dione [Compound 2] | did not exert cytotoxicity | 14.72 ± 10.92 | – | – | – | IC50 [2]: 112 ± 17.5 µM; IC50 [3]: 11.2 ± 3.9 µM |
| 2-((4-Bromophenyl)thio)-3-hydroxynaphthalene-1,4-dione [Compound 4] | no cytotoxicity was observed; also recorded: did not exert cytotoxicity; also recorded: non-toxic | 22.38 ± 5.78 | – | – | – | IC50 [2]: 15 ± 1.52 µM; IC50 [3]: 5.58 ± 1.01 µM; phosphatidylserine exposure [4]: unable to affect; PAC-1 binding to platelets (GPIIb/IIIa activation) ([5]; TRAP-6-induced): inhibited; PAC-1 binding to platelets (GPIIb/IIIa activation) ([5]; collagen-induced): inhibited; expression of CD63 on platelets' membrane ([6]; after activation with TRAP-6 (5 μM)): decreased; expression of CD63 on platelets' membrane ([6]; after activation with collagen (1 μg/mL)): decreased; P-selectin expression on activated platelets ([7]; TRAP-6 (5 μM)): inhibited; P-selectin expression on activated platelets ([7]; collagen (1 μg/mL)): inhibited |
| O=C1C(O)=C(Sc2ccccc2)C(=O)c2ccccc21 [Compound 1, 2-Hydroxy-3-(phenylthio)naphthalene-1,4-dione] | did not exert cytotoxicity | 22.35 ± 2.94 | 155 ± 55.2 | 14.6 ± 5.43 | – | – |
| COC(=O)c1ccccc1SC1=C(O)C(=O)c2ccccc2C1=O [Compound 5, Methyl 2-((3-hydroxy-1,4-dioxo-1,4-dihydronaphthalen-2-yl)thio)benzoate] | had a cytotoxic activity | 31.12 ± 3.06 | – | – | 235 °C (dec.) | – |
| O=C1C(O)=C(Sc2ccccc2F)C(=O)c2ccccc21 [Compound 6, 2-((2-Fluorophenyl)thio)-3-hydroxynaphthalene-1,4-dione] | did not exert cytotoxicity | 21.77 ± 2.37 | > 500 | 10.6 ± 2.25 | – | – |
| O=C1C(O)=C(Sc2cccc(F)c2)C(=O)c2ccccc21 [Compound 7, 2-((3-Fluorophenyl)thio)-3-hydroxynaphthalene-1,4-dione] | did not exert cytotoxicity | 21.50 ± 2.37 | 134 ± 17.3 | 11.1 ± 1.69 | 268.7 °C (dec.) | – |
| O=C1C(O)=C(Sc2ccc(F)cc2)C(=O)c2ccccc21 [Compound 8, 2-((4-Fluorophenyl)thio)-3-hydroxynaphthalene-1,4-dione] | did not exert cytotoxicity | 21.62 ± 4.17 | 108 ± 53 | 12.1 ± 1.21 | 268 °C (dec.) | – |
| O=C1C=C(O)C(=O)c2ccccc21 [Lawsone, 2-hydroxy-1,4-naphthoquinone] | had a cytotoxic activity | 32.80 ± 3.13 | – | – | – | – |
